Experimental data published in ChEMBL document CHEMBL1201862, “PubChem BioAssay data set” (2004).
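A five-concentration, 48-hour dose response in 96-well plates underlies each endpoint, interpolated linearly between surrounding concentrations. GI50 = concentration required for 50% inhibition of growth.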 The source made the active and inactive calls. Cut-off read from the data, not from the text of the source: active = GI50 up to about 1.1 µM and inactive = higher.

What was measured:
Test in all cases: growth of human tumour cells (NCI), 48 h
DMS-114 = system: DMS-114
HL-60 = system: HL-60
HOP-92 = system: HOP-92
KM-20L2 = system: KM-20L2
M19-MEL = system: M19-MEL
MCF7 = system: MCF7
MOLT-4 = system: MOLT-4
NCI-H23 = system: NCI-H23
NCI-H460 = system: NCI-H460
OVCAR-3 = system: OVCAR-3
OVCAR-4 = system: OVCAR-4
OVCAR-8 = system: OVCAR-8
RPMI-8226 = system: RPMI-8226
RXF 393 = system: RXF 393
SF-268 = system: SF-268
SF-295 = system: SF-295
UACC-257 = system: UACC-257
BT-549 = system: BT-549
DU-145 = system: DU-145
MDA-N = system: MDA-N

`Nc1nc(Cl)nc2c1ncn2C1CC(O)C(CO)O1` (stereo unspecified) was tested, and the GI50 (DMS-114) was 0.228 µM (active), the GI50 (HL-60) was 0.0601 µM (active) and the GI50 (HOP-92) was 1.3 µM (inactive). The GI50 (KM-20L2) was 2.42 µM (inactive), the GI50 (M19-MEL) was > 30.3 µM (inactive) and the GI50 (MCF7) was 9.75 µM (inactive). For the same molecule, the GI50 (MOLT-4) was 0.15 µM (active), the GI50 (NCI-H23) was 0.592 µM (active) and the GI50 (NCI-H460) was 7.28 µM (inactive). For the same molecule, the GI50 (OVCAR-3) was 25.8 µM (inactive), the GI50 (OVCAR-4) was > 100 µM (inactive) and the GI50 (OVCAR-8) was 0.097 µM (active). For the same molecule, the GI50 (RPMI-8226) was 54.2 µM (inactive), the GI50 (RXF 393) was 24.9 µM (inactive) and the GI50 (SF-268) was 26.4 µM (inactive). The GI50 (SF-295) was 67.9 µM (inactive) and the GI50 (UACC-257) was 1.76 µM (inactive).
`COC(=O)C(Cc1ccc2c(c1)OCO2)(NC(=O)c1ccccc1)P(=O)(OC)OC` (stereo unspecified) was tested, and the GI50 (DMS-114) was > 100 µM (inactive), the GI50 (HL-60) was > 100 µM (inactive) and the GI50 (HOP-92) was > 100 µM (inactive). The GI50 (KM-20L2) was > 100 µM (inactive), the GI50 (M19-MEL) was > 100 µM (inactive) and the GI50 (MOLT-4) was > 100 µM (inactive). The GI50 (NCI-H23) was > 100 µM (inactive), the GI50 (NCI-H460) was > 100 µM (inactive) and the GI50 (OVCAR-4) was > 100 µM (inactive). For the same molecule, the GI50 (OVCAR-8) was > 100 µM (inactive), the GI50 (RPMI-8226) was > 100 µM (inactive) and the GI50 (RXF 393) was > 100 µM (inactive). The GI50 (SF-268) was > 100 µM (inactive), the GI50 (SF-295) was > 100 µM (inactive) and the GI50 (UACC-257) was > 100 µM (inactive).
`CCOC(=O)/C(Cl)=C(\C)Nc1nc2c(ccc3ccccc32)s1` was tested, and the GI50 (BT-549) was 61.7 µM (inactive), the GI50 (DU-145) was 20.6 µM (inactive) and the GI50 (HL-60) was 38.1 µM (inactive). The GI50 (MCF7) was 24.5 µM (inactive), the GI50 (MDA-N) was 26.3 µM (inactive) and the GI50 (MOLT-4) was 7.28 µM (inactive). For the same molecule, the GI50 (NCI-H23) was 31.3 µM (inactive), the GI50 (NCI-H460) was 22.5 µM (inactive) and the GI50 (OVCAR-3) was 46.8 µM (inactive). For the same molecule, the GI50 (OVCAR-4) was 87.7 µM (inactive), the GI50 (OVCAR-8) was 60.3 µM (inactive) and the GI50 (SF-268) was 90.2 µM (inactive). For the same molecule, the GI50 (SF-295) was > 100 µM (inactive) and the GI50 (UACC-257) was 91.8 µM (inactive).
`O=c1ccc2ccc(CBr)cc2o1` was tested, and the GI50 (BT-549) was 3 µM (inactive), the GI50 (DU-145) was 17.1 µM (inactive) and the GI50 (HL-60) was 1.76 µM (inactive). For the same molecule, the GI50 (HOP-92) was 1.68 µM (inactive), the GI50 (MCF7) was 1.9 µM (inactive) and the GI50 (MDA-N) was 3.85 µM (inactive). The GI50 (MOLT-4) was 2.29 µM (inactive), the GI50 (NCI-H23) was 2.92 µM (inactive) and the GI50 (NCI-H460) was 10.8 µM (inactive). For the same molecule, the GI50 (OVCAR-8) was 2.05 µM (inactive), the GI50 (RPMI-8226) was 1.61 µM (inactive) and the GI50 (RXF 393) was 1.94 µM (inactive). For the same molecule, the GI50 (SF-295) was 15.3 µM (inactive) and the GI50 (UACC-257) was 11.7 µM (inactive).
In the case of `COc1cc(C2S/C(=C/c3ccccc3)C(=O)N2c2ccccc2Cl)cc(OC)c1OC` (stereo unspecified), the GI50 (BT-549) is reported as 29.3 µM (inactive), the GI50 (HOP-92) is reported as 14.3 µM (inactive) and the GI50 (MCF7) is reported as 18.6 µM (inactive). The GI50 (MDA-N) was 15.7 µM (inactive), the GI50 (MOLT-4) was 41.8 µM (inactive) and the GI50 (NCI-H23) was 24.3 µM (inactive). For the same molecule, the GI50 (OVCAR-4) was 28.2 µM (inactive), the GI50 (OVCAR-8) was 19.3 µM (inactive) and the GI50 (RXF 393) was 9.53 µM (inactive). For the same molecule, the GI50 (SF-268) was 30.3 µM (inactive), the GI50 (SF-295) was 28.9 µM (inactive) and the GI50 (UACC-257) was 45.5 µM (inactive).
`C=C1C(=O)O[C@@H]2[C@H](O)[C@@H](C)[C@@H]3C=CC(=O)[C@@]3(C)[C@@H](OC(=O)/C(C)=C/C)[C@H]12` was tested, and the GI50 (DMS-114) was 0.498 µM (active), the GI50 (HL-60) was 0.355 µM (active) and the GI50 (HOP-92) was 0.548 µM (active). The GI50 (KM-20L2) was 1.75 µM (inactive), the GI50 (M19-MEL) was 0.363 µM (active) and the GI50 (MCF7) was 0.518 µM (active). For the same molecule, the GI50 (MOLT-4) was 0.344 µM (active), the GI50 (NCI-H23) was 0.845 µM (active) and the GI50 (NCI-H460) was 0.412 µM (active). For the same molecule, the GI50 (OVCAR-3) was 0.719 µM (active), the GI50 (OVCAR-4) was 1.35 µM (inactive) and the GI50 (OVCAR-8) was 0.723 µM (active). For the same molecule, the GI50 (RPMI-8226) was 0.344 µM (active), the GI50 (RXF 393) was 0.63 µM (active) and the GI50 (SF-268) was 0.437 µM (active). The GI50 (SF-295) was 3.75 µM (inactive) and the GI50 (UACC-257) was 0.718 µM (active).
`Clc1nc(-[n+]2ccc(-c3ccncc3)cc2)nc(Nc2ccccc2)c1Cl` was tested, and the GI50 (BT-549) was > 100 µM (inactive), the GI50 (DU-145) was > 100 µM (inactive) and the GI50 (HL-60) was 35.3 µM (inactive). For the same molecule, the GI50 (HOP-92) was > 100 µM (inactive), the GI50 (MCF7) was 33.1 µM (inactive) and the GI50 (MDA-N) was > 100 µM (inactive). The GI50 (MOLT-4) was 49.1 µM (inactive), the GI50 (NCI-H23) was > 100 µM (inactive) and the GI50 (NCI-H460) was > 100 µM (inactive). The GI50 (OVCAR-3) was > 100 µM (inactive), the GI50 (OVCAR-4) was > 100 µM (inactive) and the GI50 (RPMI-8226) was 57.9 µM (inactive). For the same molecule, the GI50 (RXF 393) was > 100 µM (inactive), the GI50 (SF-268) was > 100 µM (inactive) and the GI50 (UACC-257) was > 100 µM (inactive).
`CC(C)(C)c1ccc2c(c1)OP1(Oc3c(Cl)cc(Cl)c4cccnc34)(O2)Oc2ccc(C(C)(C)C)cc2O1` was tested, and the GI50 (DMS-114) was 2.62 µM (inactive), the GI50 (HL-60) was 2.65 µM (inactive) and the GI50 (HOP-92) was 2.4 µM (inactive). For the same molecule, the GI50 (KM-20L2) was 4.92 µM (inactive), the GI50 (M19-MEL) was 3.12 µM (inactive) and the GI50 (MCF7) was 4.58 µM (inactive). For the same molecule, the GI50 (MOLT-4) was 2.81 µM (inactive), the GI50 (NCI-H23) was 6.38 µM (inactive) and the GI50 (NCI-H460) was 3.8 µM (inactive). For the same molecule, the GI50 (OVCAR-3) was 4.78 µM (inactive), the GI50 (OVCAR-4) was 10.3 µM (inactive) and the GI50 (OVCAR-8) was 5.31 µM (inactive). The GI50 (RPMI-8226) was 3.59 µM (inactive), the GI50 (RXF 393) was 13.3 µM (inactive) and the GI50 (SF-268) was 7.16 µM (inactive). For the same molecule, the GI50 (SF-295) was 5.42 µM (inactive) and the GI50 (UACC-257) was 4.03 µM (inactive).
With `Cc1ccc(S(=O)(=O)OCCN(CCOS(=O)(=O)c2ccc(C)cc2)c2ccc(C=O)cc2)cc1` the GI50 (BT-549) was 28.8 µM (inactive), the GI50 (DU-145) was 27.1 µM (inactive) and the GI50 (HL-60) was 42.3 µM (inactive). The GI50 (HOP-92) was 26.1 µM (inactive), the GI50 (MCF7) was 30.7 µM (inactive) and the GI50 (MOLT-4) was 32.4 µM (inactive). For the same molecule, the GI50 (NCI-H23) was 36.2 µM (inactive), the GI50 (NCI-H460) was 21.9 µM (inactive) and the GI50 (OVCAR-3) was 23.7 µM (inactive). For the same molecule, the GI50 (OVCAR-4) was 21.2 µM (inactive), the GI50 (OVCAR-8) was 41.8 µM (inactive) and the GI50 (RPMI-8226) was 38.4 µM (inactive). For the same molecule, the GI50 (RXF 393) was 15.7 µM (inactive), the GI50 (SF-268) was 46.6 µM (inactive) and the GI50 (SF-295) was 44.3 µM (inactive). The GI50 (UACC-257) was 24.8 µM (inactive).
In the case of `C[C@H](N[C@H]1CCC[C@]1(O)C#Cc1ccc2c(c1)OCO2)c1ccccc1`, the GI50 (DU-145) is reported as > 25 µM (inactive), the GI50 (HL-60) is reported as > 25 µM (inactive) and the GI50 (HOP-92) is reported as 11.9 µM (inactive). For the same molecule, the GI50 (MCF7) was > 25 µM (inactive), the GI50 (MOLT-4) was 10.9 µM (inactive) and the GI50 (NCI-H23) was > 25 µM (inactive). The GI50 (NCI-H460) was 21.4 µM (inactive), the GI50 (OVCAR-4) was 14 µM (inactive) and the GI50 (OVCAR-8) was > 25 µM (inactive). The GI50 (RPMI-8226) was 8.89 µM (inactive), the GI50 (RXF 393) was > 25 µM (inactive) and the GI50 (SF-268) was > 25 µM (inactive). The GI50 (SF-295) was > 25 µM (inactive) and the GI50 (UACC-257) was > 25 µM (inactive).
For `Cc1cc(O)nc(NN2C(Cl)C(=O)C2c2cccc(Cl)c2)n1` (stereo unspecified), the GI50 (DMS-114) was 22.2 µM (inactive), the GI50 (HL-60) was 16 µM (inactive) and the GI50 (HOP-92) was 20.6 µM (inactive). For the same molecule, the GI50 (KM-20L2) was 32.9 µM (inactive), the GI50 (M19-MEL) was 33.9 µM (inactive) and the GI50 (MOLT-4) was 13.8 µM (inactive). For the same molecule, the GI50 (NCI-H23) was 20.1 µM (inactive), the GI50 (NCI-H460) was 18.4 µM (inactive) and the GI50 (OVCAR-3) was 12.5 µM (inactive). The GI50 (OVCAR-4) was 28.2 µM (inactive), the GI50 (OVCAR-8) was 31.1 µM (inactive) and the GI50 (RPMI-8226) was 12.7 µM (inactive). The GI50 (RXF 393) was 8.18 µM (inactive), the GI50 (SF-268) was 18.5 µM (inactive) and the GI50 (UACC-257) was 32.8 µM (inactive).
